Experimental data taken from patent US4542153A, “Methods for changing calcium metabolism within the cells of a mammal” (The Ohio State University Research Foundation, priority 1983, dated 1985).

How the values were obtained:
[1] = test system: isolated left atria; assay: Effects on isolated guinea pig atria: electrically driven left atria; assay type: cell-based
Text: (§1) The effects of pr-MDI, bu-MDI and Q-bu-MDI on the mechanical and electrical behavior of isolated guinea pig atria were investigated by the method of H. Nawrath, J. Pharmacol. Exp. Ther., 16, 176-182 (1980). The compounds were investigated over the concentration range of 10^-8 to 3×10^-4 M.
(§2) English short-haired guinea pigs, supplied by Carr Animal Supply, of Powell, Ohio, weighing 300-600 g. were killed by a blow on the head and both atria of the animal were quickly dissected out and suspended in a water-jacketed organ bath containing Krebs-Henseleit solution through which a 95% oxygen/5% carbon dioxide mixture was bubbled at 32° C. The solution contained 6.92 g/l of sodium chloride, 0.35 g/l of potassium chloride, 0.29 g/l of magnesium […] heptahydrate, 0.3 g/l of calcium chloride dihydrate, 0.16 g/l of potassium dihydrogen phosphate, 2.1 g/l of sodium bicarbonate and 2.1 g/l of dextrose. The contractile force generated by the isolated artria was recorded isometrically under a 500 mg. preload using a Narco Biosystems force transducer connected to a physiograph DMP-4B recorder, both the transducer and the recorder being obtained from E & M Instrument Co. of Houston, Texas.
The isolated left atria were electrically driven by square wave impulses of 3 milliseconds duration at a frequency of 3 Hz. and a voltage of twice the threshold voltage, delivered by a Grass S9 stimulator obtained from Grass Instrument Co., of Quincy, Massachusetts. Two platinum electrodes were used for the stimulation, the anode being in direct contact with the atrial tissue while the cathode had the form of a ring suspended 2.5 centimeters above the anode. Before redetermination of the threshold voltage and generation of a predrug (control) frequency-force profile over the range of 1-5 Hz., an equilibriation time of one hour was allowed. The system was then re-equilibriated at 3 Hz. and twice the threshold voltage as before, then one cumulative dose-response curve of contractile force for one test compound was obtained, followed immediately by redetermination of the threshold voltage and the generation of a post-drug frequency-force profile.
A paired Student's t-test was used to compare predrug and postdrug threshold voltages for each left atrial preparations as well as to compare developed tension at each frequency in the profile of each left atrial preparation. P values of less than 0.05 were considered statistically significant.

[2] = test system: calcium-induced arrhythmias in rats; assay: Calcium-induced arrhythmias (CaCl2 injected i.v. into anesthetized rats)
Text: The experimental method used was that described in Lynch J. J., Rahwan R. G., Witiak D. T.: Effects of 2-substituted-3-dimethylamino-5,6-methylenedioxyindenes on calcium-inducedarrhythmias, J. Cardiovasc. Pharmacol. 3: 49-60 (1981). Male Sprague-Dawley rats weighing 180-250 grams were anesthetized with sodium pentobarbital and a cannula was inserted into the left jugular vein for drug administration. Electrocardiograph equipment was connected to the rat and the lead II was continuously monitored. The compound under test, dissolved in 5% dextrose solution, was administered into the jugular vein of anesthetized rats over a 40 second period. Ten minutes after this treatment, an acute dose of 1 ml/kg of a 10% CaCl2.2H2 O solution was injected into the jugular vein over a period of 10 seconds. The arrhythmias resulting from the calcium administration were graded according to the following criteria: (a) initial change in heart rate following calcium administration; (b) incidences of sinoatrial block, atrioventricular block, ectopic beats, and ventricular flutter and fibrillation; (c) time required for reversion to control ECG; and (d) incidence of mortality.

[3] = test system: thoracic aorta strips contracted with potassium chloride; assay: Vasodilator activity: potassium chloride-contracted aortic strips; assay type: cell-based, male Sprague-Dawley rats; conditions: rat aorta contracted with 40 mM potassium chloride; read-out: IC50 (mean and range of SEM) KCl
Text: (§3) Pr-MDI, bu-MDI, Q-bu-MDI and the compounds of Formulae IIIA, IIIB and IVA having the two R1 groups together forming a methylene group, each R3 a methyl group and R2 an n-propyl group or n-butyl group (the compounds of Formula III are hereinafter abbreviated as sat-pr-MDI and sat-bu-MDI respectively, reference being made where necessary to the cis isomer of Formula III A or the trans isomer of Formula III B while the compounds of Formula IV are similarly referred to as cis sat-Q-pr-MDI and cis sat-Q-bu-MDI) were tested for vasodilator activity by the method of R. F. Furchgott and S. Bhadrakom, J. P. Pharmacol. Ex. Ther., 108, 129-143 (1953).
(§4) The vasodilator activity tests were conducted on male Sprague-Dawley rats, obtained from Harlan Industries, Inc., Cumberland, Indiana. The rats, weight 250-300 g., were sacrified by cervical dislocation and a 2.5 cm. segment of the thoracic aorta was removed and rinshed in physiological buffer. Each aortic segment was cleaned of connective tissue and cut spirally two yield to strips, each 3 by 15 mm. Each strip was mounted isometrically under a tension of 1 g in a 10 ml. tissue bath thermostatically maintained at 37° C. and containing a normal physiological solution aerated with a 95% oxygen/5% carbon dioxide mixture. Forces generated by the strip were monitored using a Grass FT03 isometric transducer coupled to a Grass module 7D polygraph recorder, both the transducer and the recorder being obtained from Grass Instrument Co., of Quincy, Mass.
(§5) After the aortic tissue had been allowed to equilibriate for 1-1.5 hours in the normal physiologic solution, tissue contraction was induced by introducing either 10^-7 M norepinephrine or 40mM potassium chloride buffer to the tissue bath.
(§6) To avoid interference by loss of tension due to time dependent tissue fatigue, separate preliminary experiments were performed to determine the degree of tissue relaxation due to such fatigue and the value of the control tension generated by norepinephrine or potassium chloride prior to the addition of the test compounds was adjusted whenever the duration of the experiment was such that fatigue could be expected to cause more than a 6% loss of tension. […] All concentrations mentioned hereinafter represent the final concentration of the test compound after dilution in the tissue bath.
(§7) The figures of concentration against percent response data obtained from each aortic tissue were transformed to its appropriate probit value and IC50 values were then estimated using linear regression analysis. The normal physiological solution contained 6.9 g/l of sodium chloride, 0.35 g/l of potassium chloride, 0.11 g/l of magnesium chloride hexahydrate, 0.138 g/l of sodium dihydrogen phosphate, 2.1 g/l of sodium bicarbonate, 0.01 g/l of EDTA, 0.368 g/l of calcium chloride dihydrate and 2.0 g/l of dextrose. The high potassium buffers were obtained by substituting potassium chloride for sodium chloride on an equimolar basis to maintain tonicity.

[4] = test system: chloroform anoxia arrhythmia in mice; assay: Chloroform Anoxia Assay (chloroform-induced ventricular fibrillation); assay type: in vivo, Female Swiss albino mice; conditions: for ED50: i.p., 10 min before chloroform, table: mean values and 95% confidence limits, 10 min
Experimental: The same four compounds were tested for their ability to protect mice from chloroform anoxia by the classical chloroform inhalation procedure described in Lawson J. W.: Antiarrhythmic activity of some isoquinoline derivatives determined by a rapid screening procedure in the mouse, J. Pharmacol. Exp. Ther. 160: 22-31, (1968). In this method, chloroform inhalation leading to respiratory arrest produces ventricular fibrillation. Female Swiss albino mice procured from Laboratory Supply Company, Indianapolis, Indiana, weighing 16-22 g, were pretreated intraperitoneally with the compound under test dissolved in a 5% dextrose solution 10 minutes before exposure to chloroform in a closed container containing chloroform-saturated cotton. The mice were removed from the chloroform atmosphere immediately after respiratory arrest and the electrocardiograph lead II monitored. The ED 50 and 95% confidence limits calculated for the anti-arrhythmic agents by the standard method of Litchfield and Wilcoxon.

[5] = test system: spontaneously beating right atria; assay: Effects on isolated guinea pig atria: spontaneously beating right atria; assay type: cell-based
Text: as §1, §2
Spontaneously beating right atria were tested in a similar manner.

[6] = test system: thoracic aorta strips contracted with norepinephrine; assay: Vasodilator activity: norepinephrine-contracted aortic strips; assay type: cell-based, male Sprague-Dawley rats
Text: as §3, §4, §5, §6, §7

[7] = tested acutely and subchronically; earlier published work; cited from earlier work
[8] = test system: mice; assay: Toxicity Tests (intraperitoneal LD50); assay type: in vivo; conditions: i.p., table: mean values and 95% confidence limits

SMILES: CCCCC1=Cc2cc3c(cc2C1N(C)C)OCO3.Cl (centres unmarked) [bu-MDI, 2-butyl-5-6methylenedioxyindene-1-dimethylammonium hydrochloride, reference compound]
- effect on frequency-force profile/relation of the stimulated left atrium ([1]; 3×10^-4 M): significant depression of the frequency-force profile
- effect on threshold voltage required to drive the atria ([1]; 3×10^-4 M): significantly decreased the threshold voltage
- effect on contractile force of the electrically stimulated left atrium ([1]; 10^-8 to 3×10^-4 M): considerably greater than that of Q-bu-MDI
- potency and safety against calcium-induced arrhythmia versus verapamil ([2]; earlier work of applicants): more potent and safer then verapamil
- concentration effective against calcium-induced arrhythmias ([2]; i.v., 10 min before CaCl2): 3.75 mg/kg
- deleterious side effects ([2]; i.v., Q-bu-MDI at 0.5 mg/kg, pr-MDI and bu-MDI at 3.75 mg/kg): without deleterious side effects
- IC50 [3]: 20.3 µM
- Therapeutic Index (LD50/ED50) ([4]; ED50 from chloroform anoxia, LD50 i.p.): 4.2
- potency against chloroform/anoxia-induced arrhythmia versus quinidine ([4]; earlier work of applicants): more potent than quinidine
- ED50 ([4]; n = 40, hydrochloride): 44 mg/kg
- ED50 ([4]; n = 40, listed as Bu--MDI, hydrochloride): 44.0 mg/kg
- Antiarrhythmic Potency ([4]; quinidine = 1.00, chloroform anoxia): 1.52
- time to sustained peak effect, right atria, highest concentrations ([5]; 10^-4 M and 3×10^-4 M): 5 to 10 min
- effect on spontaneous atrial rate ([5]; 10^-8 to 3×10^-4 M): substantially identical to that of Q-bu-MDI
- effect on the contractile force of right atria ([5]; except at 3×10^-4 M for Q-bu-MDI): much greater negative inotropy
- relaxation of the aortic tissue ([6]; norepinephrine- or KCl-treated tissue): relaxed the aortic tissue
- comparative vasodilator activity, norepinephrine-treated tissue ([6]; norepinephrine-treated aortic tissue): considerably more active than Q-bu-MDI
- IC50 ([6]; rat aorta contracted with 10^-7 M norepinephrine, read-out: IC50 (mean and range of SEM) Norepinephrine): 74.1 µM
- toxicity [7]: remarkable lack of toxicity
- LD50 [8]: 185 mg/kg
